{"source": "patent US20260234115A1", "about": "“LIPID COMPOUNDS, COMPOSITIONS, AND USES THEREOF” (Liberate Bio, Inc., priority 2023, published 2026)", "test_system": "mouse organs", "experiment": "In vivo activity screening in mice: organ mean total flux (p/s) of luciferase activity after injection of F2 LNP pools (Table 6, FIG. 7A-7C)", "conditions": "luciferase mRNA", "method_in_brief": "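Luciferase output per organ is reported as mean total flux (p/s) from IVIS regions of interest. Organs were collected from perfused C57BL/6J mice and imaged 10-15 min after s.c. D-luciferin, 4-6 h after i.v. dosing. Dosing was 0.25-3 mg/kg luciferase mRNA in F2 LNP pools.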", "note": "Marks after values point to notes of the source that are not given here."}
{"molecule": "CCCC/C=C\\CCOC(=O)CCCCCCC(=O)OCC(COC(=O)CCCCCCC(=O)OCC/C=C\\CCCC)(COC(=O)CCCCCCC(=O)OCC/C=C\\CCCC)COC(=O)CCC(CCCCCC)OC(=O)NCCN1CCCC1", "note": "(stereo not shown) [Compound 43, O8-[2,2-bis[[8-[(Z)-oct-3-enoxy]-8-oxo-octanoyl]oxymethyl]-3-[4-(2-pyrrolidin-1-ylethylcarbamoyloxy)decanoyloxy]propyl]O1-[(Z)-oct-3-enyl]octanedioate]", "values": [{"measurement": "Organ Mean Total Flux Femur", "setting": "Mouse 5, dose 0.5 mg/kg", "result": "3.1 p/s (×10^6)"}, {"measurement": "Organ Mean Total Flux Heart", "setting": "Mouse 5, dose 0.5 mg/kg", "result": "0.7 p/s (×10^6)"}, {"measurement": "Organ Mean Total Flux Kidney", "setting": "Mouse 5, dose 0.5 mg/kg", "result": "1.6 p/s (×10^6)"}, {"measurement": "Organ Mean Total Flux Liver", "setting": "Mouse 5, dose 0.5 mg/kg", "result": "669.3 p/s (×10^6)"}, {"measurement": "Organ Mean Total Flux Lung", "setting": "Mouse 5, dose 0.5 mg/kg", "result": "12.8 p/s (×10^6)"}, {"measurement": "Organ Mean Total Flux Muscle", "setting": "Mouse 5, dose 0.5 mg/kg", "result": "8.0 p/s (×10^6)"}, {"measurement": "Organ Mean Total Flux Pancreas", "setting": "Mouse 5, dose 0.5 mg/kg", "result": "2.0 p/s (×10^6)"}, {"measurement": "Organ Mean Total Flux Spleen", "setting": "Mouse 5, dose 0.5 mg/kg", "result": "9.5 p/s (×10^6)"}]}
{"molecule": "CCCCCCC(CCC(=O)OCC(COC(=O)CCCC(=O)OCCC(CCCCC)CCCCC)(COC(=O)CCCC(=O)OCCC(CCCCC)CCCCC)COC(=O)CCCC(=O)OCCC(CCCCC)CCCCC)OC(=O)NCCN1CCCC1", "note": "(stereo not shown) [Compound 54, O5-[2,2-bis[[5-oxo-5-(3-pentyloctoxy)pentanoyl]oxymethyl]-3-[4-(2-pyrrolidin-1-ylethylcarbamoyloxy)decanoyloxy]propyl]O1-(3-pentyloctyl) pentanedioate]", "values": [{"measurement": "Organ Mean Total Flux Femur", "setting": "Mouse 3, dose 1.0 mg/kg", "result": "9.0 p/s (×10^6)"}, {"measurement": "Organ Mean Total Flux Heart", "setting": "Mouse 3, dose 1.0 mg/kg", "result": "19.3 p/s (×10^6)"}, {"measurement": "Organ Mean Total Flux Kidney", "setting": "Mouse 3, dose 1.0 mg/kg", "result": "60.3 p/s (×10^6)"}, {"measurement": "Organ Mean Total Flux Liver", "setting": "Mouse 3, dose 1.0 mg/kg", "result": "24850 p/s (×10^6)"}, {"measurement": "Organ Mean Total Flux Lung", "setting": "Mouse 3, dose 1.0 mg/kg", "result": "81.5 p/s (×10^6)"}, {"measurement": "Organ Mean Total Flux Muscle", "setting": "Mouse 3, dose 1.0 mg/kg", "result": "19.2 p/s (×10^6)"}, {"measurement": "Organ Mean Total Flux Pancreas", "setting": "Mouse 3, dose 1.0 mg/kg", "result": "3.6 p/s (×10^6)"}, {"measurement": "Organ Mean Total Flux Spleen", "setting": "Mouse 3, dose 1.0 mg/kg", "result": "9.6 p/s (×10^6)"}]}
{"molecule": "CCCCCCC(CCC(=O)OCC(COC(=O)CCCCOC(=O)C(CCCC)CCCCCC)(COC(=O)CCCCOC(=O)C(CCCC)CCCCCC)COC(=O)CC12CC3CC(CC(C3)C1)C2)OC(=O)NCCN1CCCC1", "note": "(stereo not shown) [Compound 59, [5-[2-[[2-(1-adamantyl)acetyl]oxymethyl]-2-[5-(2-butyloctanoyloxy)pentanoyloxymethyl]-3-[4-(2-pyrrolidin-1-ylethylcarbamoyloxy)decanoyloxy]propoxy]-5-oxo-pentyl]2-butyloctanoate]", "values": [{"measurement": "Organ Mean Total Flux Femur", "setting": "Mouse 13, dose 0.5 mg/kg", "result": "2.6 p/s (×10^6)"}, {"measurement": "Organ Mean Total Flux Heart", "setting": "Mouse 13, dose 0.5 mg/kg", "result": "2.6 p/s (×10^6)"}, {"measurement": "Organ Mean Total Flux Kidney", "setting": "Mouse 13, dose 0.5 mg/kg", "result": "1.5 p/s (×10^6)"}, {"measurement": "Organ Mean Total Flux Liver", "setting": "Mouse 13, dose 0.5 mg/kg", "result": "1967 p/s (×10^6)"}, {"measurement": "Organ Mean Total Flux Lung", "setting": "Mouse 13, dose 0.5 mg/kg", "result": "9.9 p/s (×10^6)"}, {"measurement": "Organ Mean Total Flux Muscle", "setting": "Mouse 13, dose 0.5 mg/kg", "result": "4.7 p/s (×10^6)"}, {"measurement": "Organ Mean Total Flux Pancreas", "setting": "Mouse 13, dose 0.5 mg/kg", "result": "0.7 p/s (×10^6)"}, {"measurement": "Organ Mean Total Flux Spleen", "setting": "Mouse 13, dose 0.5 mg/kg", "result": "2.8 p/s (×10^6)"}]}
{"molecule": "CCCCCCCCCOC(=O)CCCCCCC(=O)OCC(COC(=O)CCCCCCC(=O)OCCCCCCCCC)(COC(=O)CCCCCCC(=O)OCCCCCCCCC)COC(=O)CCC(CCCCCC)OC(=O)NCCN1CCCC1", "note": "(stereo not shown) [Compound 23, O8-[2,2-bis[(8-nonoxy-8-oxo-octanoy)oxymethyl]-3-[4-(2-pyrrolidin-1-ylethylcarbamoyloxy)decanoyloxy]propyl]O1-nonyl octanedioate]", "values": [{"measurement": "Organ Mean Total Flux Femur", "setting": "Mouse 11, dose 0.5 mg/kg", "result": "1.2 p/s (×10^6)"}, {"measurement": "Organ Mean Total Flux Heart", "setting": "Mouse 11, dose 0.5 mg/kg", "result": "2.1 p/s (×10^6)"}, {"measurement": "Organ Mean Total Flux Kidney", "setting": "Mouse 11, dose 0.5 mg/kg", "result": "1.2 p/s (×10^6)"}, {"measurement": "Organ Mean Total Flux Liver", "setting": "Mouse 11, dose 0.5 mg/kg", "result": "1727 p/s (×10^6)"}, {"measurement": "Organ Mean Total Flux Lung", "setting": "Mouse 11, dose 0.5 mg/kg", "result": "15.7 p/s (×10^6)"}, {"measurement": "Organ Mean Total Flux Muscle", "setting": "Mouse 11, dose 0.5 mg/kg", "result": "3.0 p/s (×10^6)"}, {"measurement": "Organ Mean Total Flux Pancreas", "setting": "Mouse 11, dose 0.5 mg/kg", "result": "0.6 p/s (×10^6)"}, {"measurement": "Organ Mean Total Flux Spleen", "setting": "Mouse 11, dose 0.5 mg/kg", "result": "1.7 p/s (×10^6)"}]}
{"molecule": "CCCCCCCCC(C)OC(=O)CCCCCC(=O)OCC(COC(=O)CCCCCC(=O)OC(C)CCCCCCCC)(COC(=O)CCCCCC(=O)OC(C)CCCCCCCC)COC(=O)CCC(CCCCCC)OC(=O)NCCN1CCCC1", "note": "(stereo not shown) [Compound 40, O1-[2,2-bis[[7-(1-methylnonoxy)-7-oxo-heptanoyl]oxymethyl]-3-[4-(2-pyrrolidin-1-ylethylcarbamoyloxy)decanoyloxy]propyl]O7-(1-methylnonyl)heptanedioate]", "values": [{"measurement": "Organ Mean Total Flux Femur", "setting": "Mouse 6, dose 0.5 mg/kg", "result": "10.9 p/s (×10^6)"}, {"measurement": "Organ Mean Total Flux Heart", "setting": "Mouse 6, dose 0.5 mg/kg", "result": "6.0 p/s (×10^6)"}, {"measurement": "Organ Mean Total Flux Kidney", "setting": "Mouse 6, dose 0.5 mg/kg", "result": "5.1 p/s (×10^6)"}, {"measurement": "Organ Mean Total Flux Liver", "setting": "Mouse 6, dose 0.5 mg/kg", "result": "3230 p/s (×10^6)"}, {"measurement": "Organ Mean Total Flux Lung", "setting": "Mouse 6, dose 0.5 mg/kg", "result": "27.7 p/s (×10^6)"}, {"measurement": "Organ Mean Total Flux Muscle", "setting": "Mouse 6, dose 0.5 mg/kg", "result": "34.4 p/s (×10^6)"}, {"measurement": "Organ Mean Total Flux Pancreas", "setting": "Mouse 6, dose 0.5 mg/kg", "result": "4.6 p/s (×10^6)"}, {"measurement": "Organ Mean Total Flux Spleen", "setting": "Mouse 6, dose 0.5 mg/kg", "result": "6.4 p/s (×10^6)"}]}
